Measured values published in article PMC9853328, “Potent Platinum(IV) Prodrugs That Incorporate a Biotin Moiety to Selectively Target Cancer Cells” (Pharmaceutics, 2022).
Like-named read-outs stand apart in the source and are kept apart here.

Legend:
Type in all cases: cell-based
[1] = test system: cisplatin-resistant ADDP ovarian (subclone of A2780) cancer cells; assay: MTT in vitro cytotoxicity assay, ADDP; settings: n = 3, read-out: GI50 ± SEM, ADDP
Protocol: (§1) The in vitro cytotoxicity assays were undertaken at Calvary Mater Hospital, Waratah, NSW, Australia, following a method previously published in the literature. A stock solution for each compound was prepared in DMSO (30 mM) and stored at −20 °C. The cell lines used in the study include HT29 colon, U87 glioblastoma, MCF-7 breast, A2780 ovarian, H460 lung, A431 skin, Du145 prostate, BE2-C neuroblastoma, SJ-G2 glioblastoma, MIA pancreas, and cisplatin-resistant ADDP ovarian (subclone of A2780) cancer cells, as well as the non-cancerous-derived MCF10A breast cell line. The cancer cell lines were cultured in a humidified atmosphere 5% CO2 at 37 °C and maintained in Dulbecco’s modified Eagle’s medium (Trace Biosciences, Sydney, Australia), supplemented with 10% foetal bovine serum, sodium bicarbonate (10 mM), penicillin (100 IU/mL), streptomycin (100 µg/mL), and glutamine (4 mM). The non-cancerous MCF10A cell line was maintained in DMEM:F12 (1:1) cell culture media, with 5% heat inactivated horse serum, supplemented with penicillin (50 IU/mL), streptomycin (50 µg/mL), glutamine (2 mM), HEPES (20 mM), epidermal growth factor (20 ng/mL), hydrocortisone (500 ng/mL), cholera toxin (100 ng/mL), and insulin (10 µg/mL). Cells were plated in duplicate in medium (100 µL) at a density of 2500–4000 cells per well in 96-well plates. On day 0, (24 h after plating) when the cells were in logarithmic growth, medium (100 μL) with or without the test agent was added to each well. The growth inhibitory effects were evaluated after 72 h drug exposure, using the MTT (3-(4,5-dimethylthiazol-2-yl)-2,5-diphenyltetrazolium bromide) assay, with the absorbance read at 540 nm. An eight-point dose–response curve was produced, which was used to determine the concentration at which growth was inhibited by 50% (GI50). This calculation was based on the difference between the optical density values on day 0 and those at the end of drug exposure. […] Experiments were conducted on three separate occasions and GI50 values were reported as the mean and standard error of the mean.

[2] = test system: A2780 ovarian cancer cells; assay: MTT in vitro cytotoxicity assay, A2780; settings: n = 3, read-out: GI50 ± SEM, A2780
Protocol: as §1

[3] = test system: ADDP (subclone of A2780) versus A2780 ovarian cancer cell lines; assay: Resistance factor, GI50 in ADDP/GI50 in A2780
[4] = test system: non-cancerous MCF10A breast cell line; assay: MTT in vitro cytotoxicity assay, MCF10A; settings: 72 h drug exposure, n = 3, read-out: GI50 ± SEM, MCF10A
Protocol: as §1

[5] = test system: MCF-7 breast cancer cells; assay: MTT in vitro cytotoxicity assay, MCF-7; settings: for GI50: MTT, 72 h drug exposure, n = 3, read-out: GI50 ± SEM, MCF-7; for selectivity towards MCF-7 compared to MCF10A (cytotoxicity): GI50 MCF10A versus GI50 MCF-7
HT29 colon cancer cells = assay: MTT in vitro cytotoxicity assay, HT29; settings: MTT, 72 h drug exposure, n = 3, read-out: GI50 ± SEM, HT29
Protocol: as §1

[6] = test system: Du145 prostate cancer cells; assay: MTT in vitro cytotoxicity assay, Du145; settings: MTT, 72 h drug exposure, n = 3, read-out: GI50 ± SEM, Du145
Protocol: as §1

[7] = test system: MIA pancreas cancer cells; assay: MTT in vitro cytotoxicity assay, MIA; settings: 72 h drug exposure, n = 3, read-out: GI50 ± SEM, MIA
Protocol: as §1

H460 lung cancer cells = assay: MTT in vitro cytotoxicity assay, H460; settings: n = 3, read-out: GI50 ± SEM, H460
Protocol: as §1

[8] = test system: BE2-C neuroblastoma cells; assay: MTT in vitro cytotoxicity assay, BE2-C; settings: 72 h drug exposure, n = 3, read-out: GI50 ± SEM, BE2-C
Protocol: as §1

A431 skin cancer cells = assay: MTT in vitro cytotoxicity assay, A431; settings: n = 3, read-out: GI50 ± SEM, A431
Protocol: as §1

SJ-G2 glioblastoma cells = assay: MTT in vitro cytotoxicity assay, SJ-G2; settings: n = 3, read-out: GI50 ± SEM, SJ-G2
Protocol: as §1

U87 glioblastoma cells = assay: MTT in vitro cytotoxicity assay, U87; settings: 72 h drug exposure, n = 3, read-out: GI50 ± SEM, U87
Protocol: as §1

[9] = Homo sapiens, A2780, 72 h drug exposure

| Compound | GI50 ([1]; 72 h drug exposure) | GI50 ([2]; 72 h drug exposure) | Resistance factor (RF) [3] | GI50 [4] | GI50 [5] | GI50 (HT29 colon cancer cells) | GI50 [6] | GI50 [7] | GI50 (H460 lung cancer cells; 72 h drug exposure) | GI50 [8] | GI50 (A431 skin cancer cells; 72 h drug exposure) | GI50 (SJ-G2 glioblastoma cells; 72 h drug exposure) | GI50 (U87 glioblastoma cells) | selectivity towards MCF-7 compared to MCF10A (cytotoxicity) [5] | also measured |
| --- | --- | --- | --- | --- | --- | --- | --- | --- | --- | --- | --- | --- | --- | --- | --- |
| Cc1cc2ccc[n+]3c2c2c1ccc[n+]2[Pt-2]31[NH2+][C@H]2CCCC[C@@H]2[NH2+]1.[Cl-].[Cl-] [5MESS(II)] | 34 ± 2.3 nM | 61 ± 10 nM | 0.557 | 30 ± 1.8 nM | 200 ± 12 nM | 33 ± 3.8 nM | 22 ± 2.7 nM | 48 ± 2 nM | 41 ± 5 nM | 270 ± 38 nM | 120 ± 25 nM | 220 ± 10 nM | 320 ± 26 nM |  |  |
| Cc1cc2ccc[n+]3c2c2c1ccc[n+]2[Pt-2]31([OH])([OH])[NH2+][C@H]2CCCC[C@@H]2[NH2+]1.O=[N+]([O-])[O-].O=[N+]([O-])[O-] [5MESS(IV)] | 180 ± 24 nM | 110 ± 26 nM | 1.636 | 220 ± 26 nM | 560 ± 200 nM | 150 ± 9 nM | 36 ± 3.2 nM | 290 ± 34 nM | 180 ± 32 nM | 1100 ± 180 nM | 240 ± 7 nM | 600 ± 74 nM | 830 ± 170 nM |  |  |
| COc1cc[n+]2c3c1ccc1c(OC)cc[n+](c13)[Pt-2]21[NH2+][C@H]2CCCC[C@@H]2[NH2+]1.[Cl-].[Cl-] [47OMESS(II)] | 170 ± 10 nM | 230 ± 7 nM | 0.739 | 430 ± 37 nM | 150 ± 45 nM | 120 ± 16 nM | 85 ± 4.8 nM | 240 ± 42 nM | 500 ± 58 nM | 2600 ± 260 nM | 350 ± 26 nM | 1300 ± 67 nM | 390 ± 60 nM | 3 fold |  |
| COc1cc[n+]2c3c1ccc1c(OC)cc[n+](c13)[Pt-2]21([OH])([OH])[NH2+][C@H]2CCCC[C@@H]2[NH2+]1.O=[N+]([O-])[O-].O=[N+]([O-])[O-] [47OMESS(IV)] | 1300 ± 58 nM | 1700 ± 230 nM | 0.765 | 3700 ± 380 nM | 510 ± 168 nM | 520 ± 85 nM | 270 ± 38 nM | 1900 ± 460 nM | 3100 ± 210 nM | 33000 ± 3200 nM | 3300 ± 590 nM | 7600 ± 1800 nM | 2600 ± 390 nM | 7 fold |  |
| O=C(O)CCCC[C@@H]1SC[C@@H]2NC(=O)N[C@@H]21 [Biotin, biotin] |  |  |  |  |  |  |  | > 50000 nM |  |  |  |  | > 50000 nM |  | GI50 [1, 9]: > 50000 nM; GI50 [2, 9]: > 50000 nM; GI50 ([4]; Homo sapiens, MCF-10A): > 50000 nM; GI50 ([5]; Homo sapiens, MCF7): > 50000 nM; GI50 (HT29 colon cancer cells; Homo sapiens, HT-29): > 50000 nM; GI50 ([6]; Homo sapiens, DU-145): > 50000 nM; GI50 (H460 lung cancer cells; Homo sapiens, NCI-H460, 72 h drug exposure): > 50000 nM; GI50 ([8]; Homo sapiens, BE(2)-C): > 50000 nM; GI50 (A431 skin cancer cells; Homo sapiens, A-431, 72 h drug exposure): > 50000 nM; GI50 (SJ-G2 glioblastoma cells; SJ-G2, 72 h drug exposure): > 50000 nM |
